In series [1] the test system is N-succinyldiaminopimelate aminotransferase (E. coli). Kind of series: Compound was tested for inhibition of N-Succinyl Diaminopimelic Acid Aminotransferase from Escherichia coli. The conditions noted are these: concentration not given here.
Series [2] is described as follows: Michaelis-Menten constant was determined. The conditions noted are these: read-out: Km app. In kind it is ADME.
In series [3] the test system is N-succinyldiaminopimelate aminotransferase (E. coli). Put plainly: Compound was tested for 50% inhibition of N-Succinyl Diaminopimelic Acid Aminotransferase (DAP-AT) from E. coli; overall rate of substrate consumption increases at 20 mM.
Series [4] can be described thus: Pharmacokinetic parameter was determined. In kind it is ADME.
The nature of series [5]: Ratio of the Kcat and Km app was determined. Type of series: ADME.
In the next series the test system is Escherichia coli. Kind of series: Regeneration time when tested against inhibition of N-Succinyl Diaminopimelic Acid Aminotransferase from Escherichia coli.
The test system of series [6] is N-succinyldiaminopimelate aminotransferase (E. coli). Kind of series: Compound was tested for inhibition of N-Succinyl Diaminopimelic Acid Aminotransferase from Escherichia coli. The conditions noted are these: concentration not given here.
The nature of series [7]: Catalytic constant was determined. In kind it is ADME.

One may read the inhibition as the change of the read-out against control, counted positive when it falls. Read a high inhibition as a response far below the control. Broadly, the Km is the substrate concentration at which the rate is half of its maximum. In turn, `CC(=O)N[C@@H](CC(=O)[O-])C(=O)N[C@@H](CCCC(=O)C(=O)[O-])C(=O)[O-].[Li+].[Li+].[Li+]` returned an inhibition in series [1] of 9.3%. Moreover, the Km in series [2] was found to be 1570 µM. The IC50 entry in series [3] was “overall rate of substrate consumption increases at 20 mM”. Moreover, in series [4], the k cat was found to be 40 s⁻¹. Also, the “k cat/Km” value in series [5] worked out at 25400 M⁻¹ s⁻¹.

The compound `CC(=O)N[C@@H](Cc1ccccc1)C(=O)N[C@@H](CCCC(NN)C(=O)O)C(=O)O` (stereo partly specified) gave a T1/2 regen in the series on Escherichia coli of 6.07 min.

For the compound `O=C(O)CCC(=O)N[C@@H](CCCC(=O)C(=O)O)C(=O)O`, the Km in series [2] was determined as 600 µM. In addition, the inhibition in series [6] was determined as 100%. The “k cat/Km” value in series [5] is 273000 M⁻¹ s⁻¹. Moreover, the k cat in series [7] was found to be 164 s⁻¹.

The compound `NNC(CCC[C@H](NC(=O)CCC(=O)O)C(=O)O)C(=O)O` (stereo partly specified) displayed a T1/2 regen in the series on Escherichia coli of 78.6 min.

Take `CC(=O)N[C@@H](Cc1ccccc1)C(=O)N[C@@H](CCCC(=O)C(=O)[O-])C(=O)[O-].[Li+].[Li+]`: in series [2], the Km was below 1000 µM. Also, the inhibition in series [6] was below 0.8%. In series [4], this compound returned a k cat below 2.1 s⁻¹. The “k cat/Km” value in series [5] was below 2100 M⁻¹ s⁻¹.

Compound `CC(=O)N[C@@H](CC(=O)O)C(=O)N[C@@H](CCCC(NN)C(=O)O)C(=O)O` (stereo partly specified) gave a T1/2 regen with Escherichia coli of 48.95 min.

The values are drawn from ChEMBL document CHEMBL1130793, “Peptide inhibitors of N-succinyl diaminopimelic acid aminotransferase (DAP-AT): a novel class of antimicrobial compounds” (Bioorg Med Chem Lett, 1998).
